According to patent US6015900A, “N-aminoalkylfluorenecarboxamides” (Neurogen Corporation, priority 1998, dated 2000):
Counter-ions that a name gives are not always drawn. Like-named read-outs stand apart in the source and are kept apart here.

Tests used:
D2 receptors = D2 receptors (Chlorocebus aethiops, UniProt P52702); experiment: biochemical; assay type: binding, African Green monkey
D3 receptors = D3 receptors (Chlorocebus aethiops, UniProt P52703); experiment: biochemical; assay type: binding, African Green monkey
[1] = COS cells containing recombinant D2 receptors, 0.5 nM ^3 H-YM 09151-2, nonspecific binding with 1 mM spiperone, read-out: D2 Ki
[2] = COS cells containing recombinant D3 receptors, 0.5 nM ^3 H-YM 09151-2, nonspecific binding with 1 mM spiperone, read-out: D3 Ki

Sequence of D3 receptors (P52703 whole entry): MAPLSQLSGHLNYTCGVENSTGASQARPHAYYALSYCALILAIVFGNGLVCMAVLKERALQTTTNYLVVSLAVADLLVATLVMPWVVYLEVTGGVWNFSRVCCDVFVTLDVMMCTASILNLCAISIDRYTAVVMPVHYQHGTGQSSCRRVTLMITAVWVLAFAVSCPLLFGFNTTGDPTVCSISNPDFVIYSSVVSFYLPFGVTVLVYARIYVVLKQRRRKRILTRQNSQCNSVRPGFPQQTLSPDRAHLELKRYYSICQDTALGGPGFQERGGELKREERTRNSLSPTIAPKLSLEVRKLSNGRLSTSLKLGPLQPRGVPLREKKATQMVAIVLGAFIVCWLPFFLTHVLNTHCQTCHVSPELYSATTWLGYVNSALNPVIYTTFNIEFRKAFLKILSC
Sequence of D2 receptors (P52702 whole entry): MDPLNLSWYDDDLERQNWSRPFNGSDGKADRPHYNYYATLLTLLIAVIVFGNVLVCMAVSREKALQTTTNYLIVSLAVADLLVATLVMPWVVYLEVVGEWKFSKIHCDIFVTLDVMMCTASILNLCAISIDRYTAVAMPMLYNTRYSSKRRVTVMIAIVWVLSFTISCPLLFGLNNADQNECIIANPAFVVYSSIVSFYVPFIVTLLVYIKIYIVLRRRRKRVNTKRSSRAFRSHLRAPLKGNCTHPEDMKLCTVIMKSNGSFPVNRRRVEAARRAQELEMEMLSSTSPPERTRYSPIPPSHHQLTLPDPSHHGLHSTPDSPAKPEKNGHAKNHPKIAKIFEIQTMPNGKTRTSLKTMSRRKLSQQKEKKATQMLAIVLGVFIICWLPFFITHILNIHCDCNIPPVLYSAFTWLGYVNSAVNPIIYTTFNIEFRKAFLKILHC

Row | Structure (SMILES) | Ki (D2 receptors) [nM] | Ki (D3 receptors) [nM] | Ki (D2 receptors; [1]) [nM] | Ki (D3 receptors; [2]) [nM]
1 | O=C(NCCCCN1CCN(c2cccc(Cl)c2Cl)CC1)c1ccc2c(c1)Cc1ccccc1-2 [Compound 1, N-{4-[4-(2,3-dichlorophenyl)-1-piperazinyl]butyl}-9H-fluorene-2-carboxamidehydrochloride] | 729 | 3 | – | –
2 | O=C(NCCCCN1CCN(c2cccc3ccccc23)CC1)c1ccc2c(c1)Cc1ccccc1-2 [Compound 2, N-{4-[4-(1-Naphthyl)-1-piperazinyl]butyl}-9H-fluorene-2-carboxamide hydrochloride] | – | – | 150 | 1
3 | O=C(NCCCCN1CCN(c2ccccc2Cl)CC1)c1ccc2c(c1)C(=O)c1ccccc1-2 [Compound 3, N-{4-[4-(2-Chlorophenyl)-1-piperazinyl]butyl}-9-oxo-fluorene-2-arboxamide hydrochloride] | – | – | 97 | 0.7
